Results published in patent EP1156056A1, “5-GLYCOSYLOXY-6-HYDROXYNAPHTHO 2,3-f]QUINOLINE-7,12-DIONE HAVING ANTICANCER ACTIVITIES” (ZAIDAN HOJIN BISEIBUTSU KAGAKU KENKYU KAI, priority 1999, dated 2000).
≈ marks a conversion by molar mass, not a printed value. Like-named read-outs stand apart in the source and are kept apart here.

Columns and labels:
Type in all cases: cell-based
[1] = test system: human pudendal squamous cell carcinoma (A431); experiment: Inhibition of proliferation of cancer cells in culture (Test Example 1); settings: A-431, 72 hours cultivation, read-out: Concentration of test compound to inhibit the proliferation of cancer cells by 50 %
Procedure: (§1) A culture medium for cancer cells was put into test tubes. To the culture medium in each tube, there was transplanted each of such various mouse cancer cells or human cancer cells as shown in Table 1 below. The cells so transplanted were cultivated under the conditions at 37°C in an air atmosphere containing 5 % CO2. To the medium containing the cancer cells so cultivated, there was added said Compounds A, B, D, E or F of this invention at different concentrations, as the test compound. […] As the comparative compound, adriamycin now clinically used was tested to repeat the test in the same way.
(§2) Namely, they are mouse colon cancer (colon 26), mouse B-cell lymphoma (LB32T), mouse lymphoma (L-1210), human cervical cancer (HeLa), human acute promyeloleukemia (HL60), human prostatic cancer (PC3), human pudendal squamous cell carcinoma (A431), human pulmonary carcinoma (PC6), human mastocarcinoma (MCF7), human esophageal carcinoma (TT), human prostatic cancer (LNcap) and human colon cancer (DLD-1).

[2] = test system: human esophageal carcinoma (TT); experiment: as above; settings: 72 hours cultivation, read-out: Concentration of test compound to inhibit the proliferation of cancer cells by 50 %
Procedure: as §1, §2

[3] = test system: human pulmonary carcinoma (PC6); experiment: as above; settings: 72 hours cultivation, read-out: Concentration of test compound to inhibit the proliferation of cancer cells by 50 %
Procedure: as §1, §2

[4] = test system: human mastocarcinoma (MCF7); experiment: as above; settings: 72 hours cultivation, read-out: Concentration of test compound to inhibit the proliferation of cancer cells by 50 %
Procedure: as §1, §2

[5] = test system: human prostatic cancer (LNcap); experiment: Inhibition of proliferation of cancer cells in culture (Test Examples 1 and 3)
Procedure: as §1, §2
(§3) The test method and the nature of cancer cells to be tested are the same as those in Test Example 1 given hereinbefore. In this Test Example 3, however, eight kinds of cancer cells indicated in Table 3 below are used, among the twelve kinds of cancer cells which were used in Test Example 1.
(§4) As the test results of measurement, the evaluated values of the concentration of each test compound which could inhibit the proliferation of cancer cells by 50 % (namely, 50 % inhibitory concentration:IC50, µg/ml) are given in Table 3.

[6] = test system: human colon cancer (DLD-1); experiment: as above; settings: for IC50: Homo sapiens
Procedure: as §1, §2, §3, §4

[7] = test system: human cervical cancer (HeLa); experiment: as above
Procedure: as §1, §2, §3, §4

[8] = test system: human prostatic cancer (PC3); experiment: as above; settings: for IC50: Homo sapiens
Procedure: as §1, §2, §3, §4

[9] = test system: human acute promyeloleukemia (HL60); experiment: as above
Procedure: as §1, §2, §3, §4

[10] = test system: mouse colon cancer (colon 26); experiment: as above; settings: Colon26, Test Example 3, Compounds N to T used as trifluoroacetate, read-out: IC50
Procedure: as §1, §2, §3, §4

[11] = test system: mouse B-cell lymphoma (LB32T); experiment: as above; settings: Test Example 3, Compounds N to T used as trifluoroacetate, read-out: IC50
Procedure: as §1, §2, §3, §4

[12] = test system: mouse lymphoma (L-1210); experiment: as above; settings: L1210, Test Example 3, Compounds N to T used as trifluoroacetate, read-out: IC50
Procedure: as §1, §2, §3, §4

[13] = 72 hours cultivation, Test Example 1, read-out: Concentration of test compound to inhibit the proliferation of cancer cells by 50 %, IC50
[14] = Test Example 1, relative to adriamycin
[15] = LNCap, Test Example 3, Compounds N to T used as trifluoroacetate, read-out: IC50
[16] = Test Example 3, Compounds N to T used as trifluoroacetate, read-out: IC50
[17] = HL-60, Test Example 3, Compounds N to T used as trifluoroacetate, read-out: IC50
[18] = Test Example 3, relative to adriamycin

| SMILES | IC50 [5, 15] [µg/mL] | IC50 [6, 16] [µg/mL] | IC50 [7, 16] [µg/mL] | IC50 [8, 16] [µg/mL] | IC50 [10] [µg/mL] | IC50 [11] [µg/mL] | IC50 [9, 17] [µg/mL] | IC50 [12] [µg/mL] | other results |
| --- | --- | --- | --- | --- | --- | --- | --- | --- | --- |
| C[C@@H]1O[C@@H](Oc2c(O)c3c(c4cccnc24)C(=O)c2ccccc2C3=O)[C@H](F)[C@H](O)[C@H]1N [Compound F, 5-(4-amino-2,4,6-trideoxy-2-fluoro-α-L-mannopyranosyloxy)-6-hydroxynaphtho[2,3-f]quinoline-7,12-dione] | – | – | – | – | – | – | – | – | IC50 [1]: 2.25 µg/mL (≈ 5.13 µM); IC50 [2]: 3.48 µg/mL (≈ 7.94 µM); IC50 [3]: 2.92 µg/mL (≈ 6.66 µM); IC50 [4]: 2.46 µg/mL (≈ 5.61 µM); IC50 ([5]; LNcap, 72 hours cultivation, Test Example 1, read-out: Concentration of test compound to inhibit the proliferation of cancer cells by 50 %, IC50): 0.67 µg/mL (≈ 1.53 µM); IC50 [6, 13]: 0.17 µg/mL (≈ 0.388 µM); anticancer activities against DLD-1, times higher than those of adriamycin [6, 14]: 11 times; IC50 [7, 13]: 0.34 µg/mL (≈ 0.776 µM); IC50 [8, 13]: 0.35 µg/mL (≈ 0.798 µM); anticancer activities against PC3, times higher than those of adriamycin [8, 14]: 2.6 times; IC50 ([9]; HL-60, 72 hours cultivation, Test Example 1, read-out: Concentration of test compound to inhibit the proliferation of cancer cells by 50 %, IC50): 0.11 µg/mL (≈ 0.251 µM) |
| C[C@@H]1O[C@@H](Oc2c(O)c3c(c4cccnc24)C(=O)c2ccccc2C3=O)[C@H](F)[C@H](OC(=O)CCN)[C@@H]1OC(=O)CCN [Compound P, 5-[3,4-di-O-(3-aminopropionyl)-2,6-dideoxy-2-fluoro-α-L-talopyranosyloxy]-6-hydroxynaphtho [2,3-f]quinoline-7,12-dione] | 1.46 (≈ 2.51 µM) | 0.46 (≈ 0.791 µM) | 0.89 (≈ 1.53 µM) | 0.55 (≈ 0.946 µM) | 0.91 (≈ 1.56 µM) | 0.82 (≈ 1.41 µM) | 0.6 (≈ 1.03 µM) | 1.27 (≈ 2.18 µM) | – |
| C[C@@H]1O[C@@H](Oc2c(O)c3c(c4cccnc24)C(=O)c2ccccc2C3=O)[C@@H](F)[C@H](OC(=O)CCN)[C@@H]1OC(=O)CCN [Compound Q, 5-[3,4-di-O-(3-aminopropionyl)-2,6-dideoxy-2-fluoro-α-L-galactopyranosyloxy]-6-hydroxynaphtho [2,3-f]quinoline-7,12-dione] | 1.54 (≈ 2.65 µM) | 0.71 (≈ 1.22 µM) | 1.7 (≈ 2.92 µM) | 0.79 (≈ 1.36 µM) | 1.43 (≈ 2.46 µM) | 0.78 (≈ 1.34 µM) | 1.09 (≈ 1.87 µM) | 2.09 (≈ 3.59 µM) | – |
| C[C@@H]1O[C@H](Oc2c(O)c3c(c4cccnc24)C(=O)c2ccccc2C3=O)[C@@H](F)[C@H](OC(=O)CCN)[C@@H]1O [Compound R, 5-[3-O-(3-aminopropionyl)-2,6-dideoxy-2-fluoro-β-L-galactopyranosyloxy]-6-hydroxynaphtho [2,3-f]quinoline-7,12-dione] | 0.47 (≈ 0.921 µM) | 0.18 (≈ 0.353 µM) | 0.29 (≈ 0.568 µM) | 0.39 (≈ 0.764 µM) | 0.46 (≈ 0.901 µM) | 0.68 (≈ 1.33 µM) | 0.54 (≈ 1.06 µM) | 0.72 (≈ 1.41 µM) | anticancer activity against DLD-1, times higher than that of adriamycin [6, 18]: 19 times; anticancer activity against PC3, times higher than that of adriamycin [8, 18]: 2.9 times |
| C[C@@H]1O[C@H](Oc2c(O)c3c(c4cccnc24)C(=O)c2ccccc2C3=O)[C@@H](F)[C@H](OC(=O)CCN)[C@@H]1OC(=O)CCN [Compound S, 5-[3,4-di-O-(3-aminopropionyl)-2,6-dideoxy-2-fluoro-β-L-galactopyranosyloxy]-6-hydroxynaphtho[2,3-f] quinoline-7,12-dione] | 0.52 (≈ 0.894 µM) | 0.42 (≈ 0.722 µM) | 0.64 (≈ 1.1 µM) | 0.55 (≈ 0.946 µM) | 0.65 (≈ 1.12 µM) | 0.79 (≈ 1.36 µM) | 0.68 (≈ 1.17 µM) | 1.13 (≈ 1.94 µM) | – |
| C[C@@H]1O[C@H](Oc2c(OC(=O)CCN)c3c(c4cccnc24)C(=O)c2ccccc2C3=O)[C@@H](F)[C@H](OC(=O)CCN)[C@@H]1OC(=O)CCN [Compound T, 5-[3,4-di-O-(3-aminopropionyl)-2,6-dideoxy-2-fluoro-β-L-galactopyranosyloxy)-6-(3-aminopropionyloxy)-naphtho[2,3-f]quinoline-7,12-dione] | 0.57 (≈ 0.873 µM) | 0.45 (≈ 0.69 µM) | 0.15 (≈ 0.23 µM) | 0.65 (≈ 0.996 µM) | 0.55 (≈ 0.843 µM) | 0.8 (≈ 1.23 µM) | 0.78 (≈ 1.2 µM) | 1.17 (≈ 1.79 µM) | – |
